Measured values published in publication PMC7367873, “Dissecting the sequence determinants for dephosphorylation by the catalytic subunits of phosphatases PP1 and PP2A” (Nature Communications, 2020).
Each block holds one substance with its values, some of them ahead of it.

Columns and labels:
[1] = test system: GFP-14-3-3β; test: GFP-14-3-3β co-IP with LC-MS/MS, untreated GFP-14-3-3β versus GFP control (14-3-3 interactome); type: binding, human
Experimental: (§1) HeLa Kyoto cells expressing transiently transfected pEGFP(C1)-14-3-3β or pEGFP(C1) control plasmid, were incubated with 20 nM Calyculin A (# 9902 S, Cell Signaling Technology) for 12 min. Cells were washed twice on ice with cold PBS and after addition of 500 µL lysis buffer (100 mM NaCl, 10 mM Tris, 0.1% IGEPAL, 1 mM EDTA, 1 mM EGTA, 20 nM Calyculin A, 1x cOmplete Mini protease inhibitor cocktail (Sigma), 1 mM DTT, 1 mM MnCl2) cells were scraped from plates, lysed by 10 pushes through an injection needle (21 G, BD) and the insoluble fraction was pelleted by centrifugation (10 min, 10^4 rcf, 4 °C). Supernatants were then subjected to incubation with 1 µM recombinant phosphatase or buffer for 1 h at 30 °C. Next, we subjected samples to immunoprecipitation using α-GFP nanobodies covalently coupled to agarose beads (2 h, 4 °C, obtained from the EMBL PEPcore Core Facility). Beads were then washed three times with lysis buffer and samples were eluted in 1x LDS sample buffer (Thermo Fisher Scientific) by heating to 70 °C for 10 min.
(§2) The samples were then reduced with 25 mM dithiothreitol (10 min at 70 °C) and alkylated with 55 mM chloroacetamide (room temperature, 30 min, in the dark). Proteins were run on a precast 4–12% NuPAGE gel (ThermoFisher Scientific) for about 1 cm to concentrate the sample prior to in-gel tryptic digestion, which was performed according to the standard procedures. The peptides obtained were dried to completeness and resuspended in 12 µL of buffer A (0.1% FA), and 5 µL of sample were injected per MS measurement. The experiment was carried out in three independent replicates.
(§3) The samples were analyzed by LC-MS/MS on a Dionex Ultimate 3000 nano-HPLC coupled online to a Fusion Lumos Tribrid mass spectrometer (Thermo Fisher Scientific). Peptides were delivered to a trap column (75 µm × 2 cm, packed in-house with 5 µm C18 resin; Reprosil PUR AQ, Dr. Maisch) and washed using 0.1% FA at a flow rate of 5 µL/min for 10 min. Subsequently, peptides were transferred to an analytical column (75 µm × 45 cm, packed in-house with 3 µm C18 resin; Reprosil Gold) applying a flow rate of 300 nL/min and separated using a 60 min linear gradient from 4% to 32% LC solvent B (0.1% FA, 5% DMSO in ACN) in LC solvent A (0.1% FA in 5% DMSO). The eluate from the analytical column was sprayed via a stainless steel emitter (Thermo Fisher Scientific) at a source voltage of 2.1 kV into the mass spectrometer. The transfer capillary was heated to 275 °C. The Fusion Lumos was operated in positive ionization mode and data-dependent acquisition (DDA), automatically switching between MS1 and MS2 spectrum acquisition. Full scan MS1 spectra were recorded in the Orbitrap from 360 to 1300 m/z at a resolution of 60k (automatic gain control (AGC) target value of 4e5 charges, maximum injection time (maxIT) of 50 ms). Up to 20 peptide precursors were isolated (isolation window, 1.7 m/z; maximum injection time, 25 ms; and AGC value, 1e5), fragmented by high-energy collision-induced dissociation (HCD) using 30% normalized collision energy (NCE), and analyzed at a resolution of 15k in the Orbitrap. Precursor ions that were singly charged, unassigned, or with charge states >6+ were excluded. The dynamic exclusion duration of fragmented precursor ions was 20 s.
(§4) Peptide and protein identification and LFQ were performed using MaxQuant software (version 1.6.1.0)[64] by searching the data against all canonical protein sequences as annotated in the Swissprot reference database (human proteins only, 20193 entries, downloaded 22 March 2016, internally annotated with PFAM domains) using the embedded search engine Andromeda[65]. The MaxQuant search was performed using two variable modifications; oxidation of methionine and N-terminal protein acetylation. Carbamidomethylation on cysteines was specified as a fixed modification. Trypsin (Trypsin/P) was specified as the proteolytic enzyme with up to two allowed missed cleavage sites.

[2] = test system: GFP-14-3-3β and its binding proteins; test: GFP-14-3-3β co-IP with LC-MS/MS label-free quantification, untreated versus PP1c-treated; parameters: species or system human
Experimental: as §1, §2, §3, §4

[3] = untreated vs GFP, LFQ intensities, 3 replicates each
[4] = PP1 vs untreated, LFQ intensities, 3 replicates each
[5] = GFP-14-3-3β co-IP LC-MS/MS, untreated vs GFP, student's t-test, label-free quantification, 3 replicates each
[6] = GFP-14-3-3β co-IP LC-MS/MS, PP1 vs untreated, student's t-test, label-free quantification, 3 replicates each
[7] = pairwise comparison untreated GFP-14-3-3β vs GFP, student's t-test, 3 replicates each, LC-MS/MS label-free quantification
[8] = pairwise comparison PP1 vs untreated, student's t-test, 3 replicates each, LC-MS/MS label-free quantification
[9] = log2 difference, pairwise comparison untreated vs GFP, label-free quantification, 3 replicates each
[10] = log2 difference, pairwise comparison PP1 vs untreated, label-free quantification, 3 replicates each
[11] = untreated vs GFP, LFQ intensities, replicates 1-3
[12] = PP1 vs untreated, LFQ intensities, replicates 1-3
[13] = pairwise comparison untreated vs GFP
[14] = pairwise comparison PP1 vs untreated

Difference (log2), PP1 vs untreated [2, 8]: -4.888 log2
Substance: TTC28
Difference (log2), untreated vs GFP [1, 7]: 4.184 log2

Difference (log2), PP1 vs untreated [2, 6]: -0.2118 log2
Substance: CKAP5
Difference (log2), untreated vs GFP [1, 5]: -0.6501 log2

Difference (log2), PP1 vs untreated [2, 12]: -1.031 log2
Substance: PPL
Difference (log2), untreated vs GFP [1, 11]: -0.5694 log2

Difference (log2), PP1 vs untreated [2, 4]: 0.7235 log2
Substance: PTBP1
Difference (log2), untreated vs GFP [1, 3]: -0.5421 log2

Difference (log2), PP1 vs untreated [2, 8]: -2.124 log2
Substance: MARK2
Difference (log2), untreated vs GFP [1, 7]: 5.827 log2

Difference (log2), PP1 vs untreated [2, 14]: 0.05859 log2
Substance: LARS
Difference (log2), untreated vs GFP [1, 13]: -0.7263 log2

Difference (log2), PP1 vs untreated [2, 6]: -0.6457 log2
Substance: NUP205
Difference (log2), untreated vs GFP [1, 5]: 1.662 log2

Difference (log2), PP1 vs untreated [2, 4]: 0.612 log2
Substance: ELAVL1
Difference (log2), untreated vs GFP [1, 3]: 3.578 log2

Difference (log2), PP1 vs untreated [2, 8]: -3.748 log2
Substance: WWC1
Difference (log2), untreated vs GFP [1, 7]: 3.436 log2

Difference (log2), PP1 vs untreated [2, 10]: 1.29
Substance: PLEC
Difference (log2), untreated vs GFP [1, 9]: -0.5388

Difference (log2), PP1 vs untreated [2, 14]: 0.07284 log2
Substance: ANXA2;ANXA2P2
Difference (log2), untreated vs GFP [1, 13]: -0.03703 log2

Difference (log2), PP1 vs untreated [2, 4]: 0.3561 log2
Substance: FASN
Difference (log2), untreated vs GFP [1, 3]: 1.462 log2

Difference (log2), PP1 vs untreated [2, 4]: 0.5007 log2
Substance: PRRC2A
Difference (log2), untreated vs GFP [1, 3]: 0.07605 log2

Difference (log2), PP1 vs untreated [2, 12]: -0.9521 log2
Substance: HSP90AB1
Difference (log2), untreated vs GFP [1, 11]: 0.1843 log2

Difference (log2), PP1 vs untreated [2, 4]: 0.4916 log2
Substance: HNRNPAB
Difference (log2), untreated vs GFP [1, 3]: 0.1502 log2

Difference (log2), PP1 vs untreated [2, 10]: 1.575
Substance: EMC1
Difference (log2), untreated vs GFP [1, 9]: -0.5374

Difference (log2), PP1 vs untreated [2, 6]: -0.3213 log2
Substance: DDX6
Difference (log2), untreated vs GFP [1, 5]: 1.378 log2

Difference (log2), PP1 vs untreated [2, 4]: 0.4617 log2
Substance: CEP170
Difference (log2), untreated vs GFP [1, 3]: 2.101 log2

Difference (log2), PP1 vs untreated [2, 14]: -0.1289 log2
Substance: XRCC6
Difference (log2), untreated vs GFP [1, 13]: -0.01757 log2

The remaining lines, values behind:

Substance: TTC27
Difference (log2), untreated vs GFP [1, 3]: 0.5169 log2
Difference (log2), PP1 vs untreated [2, 4]: 0.3393 log2

Substance: NUP188
Difference (log2), untreated vs GFP [1, 5]: 1.172 log2
Difference (log2), PP1 vs untreated [2, 6]: -0.6223 log2

Substance: RFC5
Difference (log2), untreated vs GFP [1, 9]: -0.3031
Difference (log2), PP1 vs untreated [2, 10]: 1.3455

Substance: CORO1C
Difference (log2), untreated vs GFP [1, 3]: -0.8872 log2
Difference (log2), PP1 vs untreated [2, 4]: 0.3782 log2

Substance: ILF2
Difference (log2), untreated vs GFP [1, 13]: 3.657 log2
Difference (log2), PP1 vs untreated [2, 14]: -0.07574 log2

Substance: EFTUD2
Difference (log2), untreated vs GFP [1, 5]: 2.59 log2
Difference (log2), PP1 vs untreated [2, 6]: -0.7202 log2

Substance: YWHAE
Difference (log2), untreated vs GFP [1, 11]: 6.648 log2
Difference (log2), PP1 vs untreated [2, 12]: -1.3 log2

Substance: SEC16A
Difference (log2), untreated vs GFP [1, 11]: 2.809 log2
Difference (log2), PP1 vs untreated [2, 12]: -1.037 log2

Substance: MARK3
Difference (log2), untreated vs GFP [1, 7]: 4.732 log2
Difference (log2), PP1 vs untreated [2, 8]: -2.088 log2

Substance: SMARCA5
Difference (log2), untreated vs GFP [1, 11]: 3.229 log2
Difference (log2), PP1 vs untreated [2, 12]: -1.929 log2

Substance: MYO18A
Difference (log2), untreated vs GFP [1, 7]: 2.435 log2
Difference (log2), PP1 vs untreated [2, 8]: -3.467 log2

Substance: SPTBN1
Difference (log2), untreated vs GFP [1, 11]: 0.3641 log2
Difference (log2), PP1 vs untreated [2, 12]: -1.61 log2

Substance: HNRNPK
Difference (log2), untreated vs GFP [1, 13]: 0.6096 log2
Difference (log2), PP1 vs untreated [2, 14]: 0.05533 log2

Substance: DOCK11
Difference (log2), untreated vs GFP [1, 11]: 2.579 log2
Difference (log2), PP1 vs untreated [2, 12]: -1.861 log2

Substance: PRKDC
Difference (log2), untreated vs GFP [1, 13]: -0.4154 log2
Difference (log2), PP1 vs untreated [2, 14]: 0.07826 log2
